# Read-outs that look alike come from different tables or passages of the source.
# Columns and labels:
# [1] = tested on: rat soleus muscle; assay type: cell-based
# Method: Male Harlan Sprague Dawley rats of approximately 200 g mass were used in order to maintain soleus muscle mass less than 40 mg. The animals were fasted for 4 hours prior to sacrifice by decapitation. The skin was stripped from the lower limb which was then pinned out on cork board. The tendo achilles was cut just above os […]. gastrocnemius reflected out from the posterior aspect of the tibia. M. soleus, a small […], 0.55 mm thick flat muscle on the bone surface of m. gastrocnemius was then stripped clear and the perimysium cleaned off using fine scissors and forceps. M. soleus was then split into equal parts using a blade passed antero-posteriorly through the belly of the muscle to obtain a total of 4 muscle strips from each animal. After dissecting the muscle from the animal, it was kept for a short period in physiological saline. The muscle was not held under tension, as reported in other methodologies since in our hands this had no demonstrable effect on the insulin-sensitivity of radioglucose incorporation into glycogen. Muscles were added to 50 mL Erlenmeyer flasks containing 10 mL of a pregassed Krebs-Ringer bicarbonate buffer containing (mM) NaCl 118.5; KCl 5.94; CaCl2 2.54; MgSO4 1.19; KH2 PO4 1.19; NaHCO3 25; glucose 5.5; and recombinant human insulin (Humulin-R, Eli Lilly, Ind.) and either synthetic rat (Bachem, Torrance, Calif. Lot# ZG485) or synthetic human amylin (Bachem, Torrance, Calif. Lot# ZH144) as detailed below. Methods used to determine the nature and purity of rat and human amylin included quantitative amino acid analysis, gas phase amino acid sequencing, reverse phase HPLC and fast-atom-bombardment mass spectrometry. […] Incorporation of mercury into rat amylin may be a feature of many commercially available batches that have already been used in published studies. Since the peptide was bioactive, its action in muscle was expected to at least qualitatively mimic that of true rat amylin. The mercuric method of cyclization was not used in the synthesis of human amylin, which is found by electrospray ionization mass spectrometry and atomic absorption spectroscopy to be mercury-free. Muscles were assigned to different flasks so that the four muscle pieces from each animal were evenly distributed among the different assay conditions. The incubation media were gassed by gently blowing carbogen (95% O2, 5% CO2) over the surface while it was continuously agitated at 37° C. in an oscillating water bath. pH of gassed media at 37° C. was verified as being between 7.1 and 7.4. After a half-hour preincubation, 0.5 μCi of [U-^14 C]-glucose was added to each flask for a further 60 minutes. Each muscle piece was then rapidly removed, trimmed of tendons, blotted, frozen in liquid N2, weighed and then stored at […] for subsequent determination of ^14 C-glycogen. The incubation medium was also frozen for subsequent analysis. The concentration of human amylin present in the medium at the end of the incubation was determined by radioimmunoassay in surfactant-containing buffer. For both human and rat amylin, the actual mass added to the incubation medium was determined by quantitative amino-acid analysis. Each frozen muscle specimen was placed in a vial with 1 mL 60% potassium hydroxide (wt/vol) and digested at 70° C. for 45 minutes under intermittent vigorous agitation. Dissolved glycogen was precipitated onto the walls of the vial by addition of 3 mL absolute ethanol and overnight cooling at -20° C. After centrifugation for 30 minutes at 2000 x-- g, the supernatant was gently aspirated, the glycogen was again washed with ethanol and centrifuged, the ethanol aspirated and the precipitate dried under vacuum. It was important to evaporate all ethanol to avoid quenching during scintillation counting. The remaining glycogen was redissolved in 1 mL water and 4 mL scintillation fluid and counted for ^14 C. […]
# [2] = tested on: patients with juvenile-onset diabetes; experiment: 14-day clinical study: adverse events; assay type: in vivo, human
# From the text: In a 14-day double-blind, placebo controlled clinical study, for example, patients with juvenile-onset diabetes who continued their usual insulin therapy and self-injected tripro-amylin three times daily had lower average blood glucose levels after a test meal than did patients who received insulin and placebo. […] See also Table 2 below. […] These thrice-daily doses of tripro-amylin reflect per day dosages of, respectively, 90, 300, and 900 micrograms per patient. For a patient of average weight, about 70 kg, these reflect doses of 1.3 μg/kg/day, 4.3 μg/kg/day, and 12.9 μg/kg/day. An average per day insulin dose is about 50 units, or 2000 micrograms.
# The only adverse events which led a limited number of patients to discontinue the study were gastrointestinal side effects, mainly nausea, which were more frequent only in those patients receiving higher doses of drug. About 20% of patients in the mid- and high-dose groups who reported nausea also experienced vomiting on one or more occasions.
# [3] = tested on: patients with juvenile-onset diabetes; experiment: 14-day clinical study: insulin challenge to induce hypoglycemia; assay type: in vivo, human; details: after overnight fast, after 14 days of therapy
# From the text: Following an overnight fast, patients in the 14-day study were challenged with insulin twice: prior to the start of dosing, and after 14 days of placebo or tripro-amylin therapy. The insulin challenge was designed to pharmacologically induce hypoglycemia in a controlled and reproducible manner.
# [4] = tested on: streptozotocin-diabetic rats; experiment: Liver glycogen in insulin-treated streptozotocin diabetic rats, daily s.c. amylin replacement; assay type: in vivo, rat; details: STZ diabetic rats, insulin replacement only
# Method: There were 68 male Harlan Sprague Dawley rats (mass 301±3 g) in 8 treatment groups. Animals were housed at 22.7±0.8° C. in a 12:12 hour light:dark cycle (experiments being performed during the light cycle) and fed and watered ad libitum (Diet LM-485, Teklad, Madison, Wis.). The rats were sacrificed for harvesting of livers 4 to 5 hours into the light cycle.
# Animals were injected with streptozotocin (Sigma Chemical Company, St Louis, Mo.: Sigma 50130) dissolved in water in a dose of 65 mg/kg into the lateral tail vein. […] Maintaining diabetic rats in this metabolic state optimizes survival. Following one week of established diabetes, animals received once daily s.c. injections of amylin vehicle (water for injection) for 5 days given at the time of the insulin injection.
# These animals were treated identically to those in group 1 except that the daily subcutaneous injection contained 3 μg (n=5); 10 μg (n=12); 30 μg (n=5); 100 μg (n=5) or 300 μg (n=5) of rat amylin (Bachem lot# WG485^2/). The bioactivity of the peptide used in these experiments was first verified by bioassay, using inhibition of insulin-stimulated radioglucose incorporation into glycogen in the isolated stripped rat soleus muscle. […] The insulin dose in each of the groups of diabetic animals averaged 1.67 U/animal/day. There were no other observable differences in the required management of the different groups.
# These animals were derived from the same stock and housed under the same conditions for the same time as those in groups 1-6, but were given no injections. 24 hours after the fifth daily injection of amylin or water (or an equivalent time after admission to the vivarium in the case of group 7 rats), the non-fasted rats were killed by decapitation and the livers immediately removed and frozen in liquid N2, weighed and stored for subsequent determination of glycogen concentration.
# Whole livers were powdered while frozen. Approximately 200 mg of powder was further homogenized in 1.0 mL of 0.6M perchloric acid to denature enzymes. 200 μL of the homogenate was neutralized with 0.5 volumes of 1.0M KHCO3 in either of two acetate buffer solutions, one containing 2.0 mL of 200 mM acetate (pH4.8), the other containing the same but with 18.5 U/mL of amyloglucosidase (EC5 3.2.1.3, from Aspergillus nicer, Sigma A3423, Sigma Chemical Company, St Louis, Mo.) added. Following at least 20 minutes incubation at 23° C., the supernatants were assayed for glucose in an analyzer using D-glucose oxidase immobilized enzyme chemistry (Analyzer model 2300-STAT, YSI, Yellow Springs, Ohio). Purified rabbit liver glycogen (Sigma G8876) used as a standard indicated 98±4% recovery of dissolved glycogen and linearity within the range of observed liver glycogen concentrations (r=0.9994). All reagents were of analytical grade or better.
# Statistical comparisons were by Student's t-test routines contained in the SYSTAT system (Systat, Evanston, Ill.). All results are reported as means ± standard error of the mean.
# [5] = 30 micrograms 3 times daily, 18 patients starting study
# [6] = 100 micrograms 3 times daily, 23 patients starting study
# [7] = 300 micrograms 3 times daily, 21 patients starting study
compound,measurement,setting,value
CC[C@H](C)[C@H](NC(=O)[C@H](C)NC(=O)CNC(=O)[C@H](Cc1ccccc1)NC(=O)[C@H](CC(N)=O)NC(=O)[C@H](CC(N)=O)NC(=O)[C@H](CO)NC(=O)[C@H](CO)NC(=O)[C@H](Cc1c[nH]cn1)NC(=O)[C@@H](NC(=O)[C@H](CC(C)C)NC(=O)[C@H](Cc1ccccc1)NC(=O)[C@H](CC(N)=O)NC(=O)[C@H](C)NC(=O)[C@H](CC(C)C)NC(=O)[C@H](CCCNC(=N)N)NC(=O)[C@H](CCC(N)=O)NC(=O)[C@@H](NC(=O)[C@H](C)NC(=O)[C@@H]1CSSC[C@H](NC(=O)[C@@H](N)CCCCN)C(=O)N[C@@H](CC(N)=O)C(=O)N[C@@H]([C@@H](C)O)C(=O)N[C@@H](C)C(=O)N[C@@H]([C@@H](C)O)C(=O)N1)[C@@H](C)O)C(C)C)C(=O)N[C@@H](CC(C)C)C(=O)N[C@@H](CO)C(=O)N[C@@H](CO)C(=O)N[C@H](C(=O)N[C@@H](CC(N)=O)C(=O)N[C@H](C(=O)NCC(=O)N[C@@H](CO)C(=O)N[C@@H](CC(N)=O)C(=O)N[C@H](C(=O)N[C@@H](Cc1ccc(O)cc1)C(N)=O)[C@@H](C)O)C(C)C)[C@@H](C)O [human amylin],EC50,[1]; 4 h,0.438 nM
"CC[C@H](C)[C@H](NC(=O)[C@@H]1CCCN1C(=O)CNC(=O)[C@H](Cc1ccccc1)NC(=O)[C@H](CC(N)=O)NC(=O)[C@H](CC(N)=O)NC(=O)[C@H](CO)NC(=O)[C@H](CO)NC(=O)[C@H](Cc1c[nH]cn1)NC(=O)[C@@H](NC(=O)[C@H](CC(C)C)NC(=O)[C@H](Cc1ccccc1)NC(=O)[C@H](CC(N)=O)NC(=O)[C@H](C)NC(=O)[C@H](CC(C)C)NC(=O)[C@H](CCCNC(=N)N)NC(=O)[C@H](CCC(N)=O)NC(=O)[C@@H](NC(=O)[C@H](C)NC(=O)[C@@H]1CSSC[C@H](NC(=O)[C@@H](N)CCCCN)C(=O)N[C@@H](CC(N)=O)C(=O)N[C@@H]([C@@H](C)O)C(=O)N[C@@H](C)C(=O)N[C@@H]([C@@H](C)O)C(=O)N1)[C@@H](C)O)C(C)C)C(=O)N[C@@H](CC(C)C)C(=O)N1CCC[C@H]1C(=O)N1CCC[C@H]1C(=O)N[C@H](C(=O)N[C@@H](CC(N)=O)C(=O)N[C@H](C(=O)NCC(=O)N[C@@H](CO)C(=O)N[C@@H](CC(N)=O)C(=O)N[C@H](C(=O)N[C@@H](Cc1ccc(O)cc1)C(N)=O)[C@@H](C)O)C(C)C)[C@@H](C)O [tripro-amylin, ^25,28,29 Pro-human-amylin]","side effect profile, measures of safety",[2]; 14-day tests,all measures of safety were satisfactory
same,Patients reporting any gastrointestinal symptoms,[2]; [5],5
same,Patients reporting nausea for more than 7 days,[2]; [5],1
same,Patients reporting other events resulting in early discontinuation,[2]; [5],0
same,Patients who withdrew from the study with nausea,[2]; [5],1
same,Patients reporting any gastrointestinal symptoms,[2]; [6],13
same,Patients reporting nausea for more than 7 days,[2]; [6],8
same,Patients reporting other events resulting in early discontinuation,[2]; [6],0
same,Patients who withdrew from the study with nausea,[2]; [6],1
same,Patients reporting any gastrointestinal symptoms,[2]; [7],20
same,Patients reporting nausea for more than 7 days,[2]; [7],11
same,Patients reporting other events resulting in early discontinuation,[2]; [7],0
same,Patients who withdrew from the study with nausea,[2]; [7],8
same,patients who reported nausea and also experienced vomiting on one or more occasions,[2]; mid- and high-dose groups,About 20%
same,glucose response to insulin challenge compared to placebo group,[3],did not measurably alter the glucose reponse
"insulin: recombinant human insulin (Humulin-R, Eli Lilly) in soleus assay; Humulin-Ultralente for daily treatment of diabetic rats","Insulin dose response: Maximal response, Mean",[1]; [amylin] 0 nM (nominal),4.09 μmol/g wet tissue/hr
same,EC50,"[1]; [amylin] 0 nM (nominal), read-out: Insulin dose response: EC50, Mean ± log SE (converted)",1.16 ± 0.1 nM
same,"Insulin dose response: Maximal response, Mean",[1]; [amylin] 3 nM (nominal),3.45 μmol/g wet tissue/hr
same,EC50,"[1]; [amylin] 3 nM (nominal), read-out: Insulin dose response: EC50, Mean ± log SE (converted)",0.78 ± 0.12 nM
same,"Insulin dose response: Maximal response, Mean",[1]; [amylin] 10 nM (nominal),3.12 μmol/g wet tissue/hr
same,EC50,"[1]; [amylin] 10 nM (nominal), read-out: Insulin dose response: EC50, Mean ± log SE (converted)",1.52 ± 0.15 nM
same,"Insulin dose response: Maximal response, Mean",[1]; [amylin] 30 nM (nominal),2.13 μmol/g wet tissue/hr
same,EC50,"[1]; [amylin] 30 nM (nominal), read-out: Insulin dose response: EC50, Mean ± log SE (converted)",1.33 ± 0.2 nM
same,"Insulin dose response: Maximal response, Mean",[1]; [amylin] 100 nM (nominal),1.15 μmol/g wet tissue/hr
same,"Insulin dose response: Maximal response, Mean",[1]; [amylin] 300 nM (nominal),0.93 μmol/g wet tissue/hr
same,EC50,"[1]; absence of amylin, pooled from 7 assays, ±0.07 log units, read-out: EC50 of the insulin response",1.05 nM
same,increment in rate of glycogen labelling,"[1]; insulin dose response in absence of amylin, pooled from 7 assays",3.7 fold
same,decrease in liver glycogen compared to normal rats,[4]; fed state,~35%
same,liver glycogen concentration,[4]; normal rats 8.6 mg/g,5.6 mg/g

# — patent publication US5814600A, “Method and composition for treatment of insulin requiring mammals” (Amylin Pharmaceuticals Inc., priority 1994, dated 1998)
